Read-outs that look alike come from different tables or passages of the source.
Experiments:
Distribution coefficient = type: physicochemical; conditions: data on file
[1] = Mass balance, single oral dose of 50 mg 14C-labeled vortioxetine; type: in vivo, human; conditions: single oral dose 50 mg 14C-labeled; data on file
[2] = Effect of sex, age and race/ethnicity on pharmacokinetics; type: in vivo, human
CYP1A2 = target: T1, CYP1A2 (Homo sapiens, UniProt P05177); assay: In-vitro CYP inhibition in pooled human liver microsomes; type: in vitro ADME; conditions: data on file
T1 sequence (P05177 1-516): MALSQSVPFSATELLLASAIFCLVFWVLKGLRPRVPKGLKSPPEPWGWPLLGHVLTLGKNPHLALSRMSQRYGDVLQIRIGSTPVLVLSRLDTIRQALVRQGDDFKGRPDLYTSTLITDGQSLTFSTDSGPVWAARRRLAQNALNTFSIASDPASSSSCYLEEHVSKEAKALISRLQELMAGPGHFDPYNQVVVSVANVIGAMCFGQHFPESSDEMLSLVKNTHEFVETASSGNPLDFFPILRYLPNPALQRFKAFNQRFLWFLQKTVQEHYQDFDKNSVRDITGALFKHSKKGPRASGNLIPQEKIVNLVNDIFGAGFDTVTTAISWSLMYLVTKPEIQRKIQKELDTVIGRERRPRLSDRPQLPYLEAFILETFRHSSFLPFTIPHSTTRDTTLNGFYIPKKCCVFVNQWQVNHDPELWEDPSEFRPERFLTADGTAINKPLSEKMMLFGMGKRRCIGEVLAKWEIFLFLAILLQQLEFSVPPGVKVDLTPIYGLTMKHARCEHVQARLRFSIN

CYP2E1 = CYP2E1 (Homo sapiens, UniProt P05181); assay: as above; type: in vitro ADME; conditions: data on file
CYP2D6 = CYP2D6 (Homo sapiens, UniProt P10635); assay: as above; type: in vitro ADME; conditions: data on file
CYP2C8 = target: T2, CYP2C8 (Homo sapiens, UniProt P10632); assay: as above; type: in vitro ADME
T2 sequence (P10632 1-490): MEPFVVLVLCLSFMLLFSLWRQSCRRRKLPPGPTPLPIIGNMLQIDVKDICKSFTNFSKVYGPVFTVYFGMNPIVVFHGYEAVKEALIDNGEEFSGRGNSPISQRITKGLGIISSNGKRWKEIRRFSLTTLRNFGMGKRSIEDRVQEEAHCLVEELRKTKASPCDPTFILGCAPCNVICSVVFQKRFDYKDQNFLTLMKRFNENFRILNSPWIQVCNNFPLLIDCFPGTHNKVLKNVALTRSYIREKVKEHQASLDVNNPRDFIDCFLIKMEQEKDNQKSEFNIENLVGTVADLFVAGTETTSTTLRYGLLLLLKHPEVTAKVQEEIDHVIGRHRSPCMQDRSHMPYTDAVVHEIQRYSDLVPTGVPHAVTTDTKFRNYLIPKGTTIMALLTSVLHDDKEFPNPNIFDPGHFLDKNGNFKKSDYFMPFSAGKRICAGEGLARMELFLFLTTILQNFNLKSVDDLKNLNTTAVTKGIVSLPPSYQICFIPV

[3] = cited from earlier work
[4] = cited from earlier work; remark: listed apart in the source
[5] = cited from earlier work; remark: listed apart in the source
plasma protein = conditions: healthy volunteers and hepatic or renal impairment; cited from earlier work
[6] = cited from earlier work; remark: listed apart in the source
[7] = cited from earlier work; remark: listed apart in the source
[8] = cited from earlier work; remark: listed apart in the source
[9] = tested on: P-glycoprotein (Pgp) transporter; conditions: cited from earlier work
[10] = cited from earlier work; remark: listed apart in the source
5-HT3 receptor = conditions: in vitro; cited from earlier work
5-HT7 receptor = conditions: in vitro; cited from earlier work
5-HT1D receptor = conditions: in vitro; cited from earlier work
5-HT transporter (SERT) = conditions: in vitro; cited from earlier work
[11] = cited from earlier work; remark: listed apart in the source
[12] = multiple doses of 2.5, 5, and 20 mg, male, data on file
[13] = simulation, 20 mg at steady state
[14] = within 360 h, single 50-mg 14C dose
[15] = 10 mg daily for 14 days (Fig. 2)
[16] = single dose 10 mg, 65–85 vs 18–45 years
[17] = single dose, 24 male vs 24 female
[18] = bupropion 150 mg twice daily with vortioxetine 10 mg once daily
[19] = fluconazole 200 mg once daily with vortioxetine 10 mg
[20] = ketoconazole 400 mg once daily with vortioxetine 10 mg
[21] = rifampin 600 mg daily with vortioxetine 20 mg

Sequence of CYP2D6 (P10635 whole entry): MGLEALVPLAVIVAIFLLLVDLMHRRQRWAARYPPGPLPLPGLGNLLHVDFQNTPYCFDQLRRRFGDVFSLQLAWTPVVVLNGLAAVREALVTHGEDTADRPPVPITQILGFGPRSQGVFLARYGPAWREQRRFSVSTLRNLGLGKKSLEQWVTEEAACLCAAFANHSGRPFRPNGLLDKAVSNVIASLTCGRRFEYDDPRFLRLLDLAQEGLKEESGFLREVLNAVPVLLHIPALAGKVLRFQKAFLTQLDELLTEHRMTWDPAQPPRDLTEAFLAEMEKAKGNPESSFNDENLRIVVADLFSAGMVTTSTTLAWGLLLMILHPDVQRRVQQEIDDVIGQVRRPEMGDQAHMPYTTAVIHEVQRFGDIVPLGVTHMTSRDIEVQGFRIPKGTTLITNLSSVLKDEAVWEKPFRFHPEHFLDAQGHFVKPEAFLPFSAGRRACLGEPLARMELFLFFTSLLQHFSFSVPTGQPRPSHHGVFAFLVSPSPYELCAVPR
Sequence of CYP2E1 (P05181 whole entry): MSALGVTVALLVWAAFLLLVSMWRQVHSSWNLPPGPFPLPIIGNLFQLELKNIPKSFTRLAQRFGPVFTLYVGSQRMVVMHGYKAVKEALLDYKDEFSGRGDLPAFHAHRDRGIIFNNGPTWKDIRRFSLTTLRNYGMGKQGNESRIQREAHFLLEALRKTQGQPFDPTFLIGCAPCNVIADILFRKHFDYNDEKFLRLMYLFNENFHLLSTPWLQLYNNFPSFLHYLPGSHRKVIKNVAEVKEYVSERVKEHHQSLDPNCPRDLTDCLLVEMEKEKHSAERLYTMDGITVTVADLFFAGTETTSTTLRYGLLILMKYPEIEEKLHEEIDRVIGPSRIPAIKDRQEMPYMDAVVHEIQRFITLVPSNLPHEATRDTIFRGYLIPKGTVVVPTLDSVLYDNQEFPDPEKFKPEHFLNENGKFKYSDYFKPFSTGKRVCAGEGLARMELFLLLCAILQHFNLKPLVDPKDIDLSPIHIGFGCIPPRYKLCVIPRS

## Br.Cc1ccc(Sc2ccccc2N2CCNCC2)c(C)c1 [vortioxetine, 1-[2-(2,4-dimethyl-phenylsulfanyl)-phenyl]-piperazine, hydrobromide]
Distribution coefficient; pH 3, 25 °C
  distribution coefficient (octanol/water): 2.2
Distribution coefficient; pH 11, 25 °C
  distribution coefficient (octanol/water): 4.7
[1]
  red blood cell distribution: negligible
[2]; multiple 10-mg doses (Fig. 2)
  AUC(0–24) higher in elderly than young subjects: 27%
  C max higher in elderly than young subjects: 23%
[2]; multiple doses (Fig. 2)
  AUC(0–24) higher in female than male subjects: 27%
  C max higher in female than male subjects: 24%
[2]; [12]
  AUC(0–24) higher in Japanese than white participants: 8%
  C max higher in Japanese than white participants: 9%
CYP1A2
  inhibitory in-vitro effect on CYP1A2: no inhibitory in-vitro effect
CYP2E1
  inhibitory in-vitro effect on CYP2E1: no inhibitory in-vitro effect
CYP2D6
  inhibitory in-vitro effect on CYP2D6: no inhibitory in-vitro effect
CYP2C8; CYP2C8, much smaller than
  ratio of maximum plasma concentration of inhibitor (I) and Ki: smaller than 0.1
CYP2C8; pooled human liver microsomes, CYP isozyme-specific probe substrates, data on file
  inhibitory effect on CYP2C8: inhibitory effect
[3]; CYP2D6 EMs
  estimated CL/F: 34.1 L/h
[3]; CYP2D6 IMs
  estimated CL/F: 26.6 L/h
[3]; CYP2D6 PMs
  estimated CL/F: 18.1 L/h
[3]; CYP2D6 UMs
  estimated CL/F: 52.9 L/h
[3]
  oral clearance, CYP2C19 EMs relative to PMs: 1.4 times
  oral clearance, CYP2D6 EMs higher than PMs: approximately two-fold
[3]; expected
  exposure in CYP2D6 PMs relative to CYP2D6 EMs: twice as high
  population mean AUC lower in CYP2D6 UMs than EMs: 35.5%
[3]; oral
  estimated minimal lag time: 0.781 h
[3]; phase I population-PK analysis
  mean oral clearance: 33 L/h
[3]; [13]
  AUC(0–24) higher, 75-year-old vs 40-year-old: 40%
  AUC(0–24) lower, 18-year-old vs 40-year-old: 15%
  C max higher, 75-year-old vs 40-year-old: 38%
  C max lower, 18-year-old vs 40-year-old: 14%
[3]; simulation, 20 mg
  C max and AUC(0–24) higher, 155 cm vs 175 cm person: 5%
  C max and AUC(0–24) lower, 187 cm vs 175 cm person: 4%
[4]; fed vs fasting
  effect of food (high-fat meal) on PK parameters: No food effect
[4]; high-fat meal, within bioequivalence range
  90% CIs for AUC(0–t) or AUC(0–inf) and C max ratios (fed to fasting): 80–125%
[5]; single 50-mg 14C dose, feces only
  parent drug detected in the feces: 1.5%
[5]; single oral dose 50 mg 14C-labeled
  drug concentration in plasma relative to whole blood: double
[5]; [14]
  drug-related material recovered in feces: 26%
  drug-related material recovered in urine: 59%
  drug-related material recovered in urine and feces: approximately 85%
Plasma protein
  bound to plasma protein: Approximately 99%
  unbound drug: 1%
[6]
  hepatic clearance, contribution to CL/F: 99%
  renal clearance of parent drug, contribution to CL/F: < 1%
[7]; [15]
  AUC(0–24) higher in black than white volunteers: 25%
  C max higher in black than white volunteers: 33%
[7]; [16]
  AUC(0–t) higher in elderly than young subjects: 4%
  C max lower in elderly than young subjects: 11%
[7]; [17]
  AUC(0–t) higher in female than male subjects: 18%
  C max higher in female than male subjects: 16%
[8]; [18]
  AUC(0–24) increase of vortioxetine: 2.3 fold
  C max increase of vortioxetine: 2.1 fold
[8]; co-administered with ketoconazole
  AUC(0–t) and C max of vortioxetine with a Pgp inhibitor: marginally increased
[8]; co-administration of aspirin
  effect on exposure to vortioxetine: no effect
[8]; co-administration of ethanol
  effect on exposure to vortioxetine: no effect
[8]; co-administration of omeprazole
  effect on exposure to vortioxetine: no effect
[8]; [19]
  AUC(0–t) increase of vortioxetine: 46%
  C max increase of vortioxetine: 15%
[8]; [20]
  AUC(0–t) increase of vortioxetine: 30%
  C max increase of vortioxetine: 26%
[8]; [21]
  AUC(0–t) decrease of vortioxetine: 72%
  C max decrease of vortioxetine: 51%
[9]
  I/half maximal inhibitory concentration (Pgp efflux): smaller than 0.1
[9]; in vitro
  Pgp substrate in vitro: poor substrate
  inhibition of Pgp transport in vitro: weak inhibitor
[10]; co-administration with diazepam
  effect on neuropsychologic tests of cognitive domains with diazepam: did not have a statistically significant effect
[10]; computerized neuropsychologic tests
  effect on mental and motor impairment effects of alcohol: did not increase
5-HT3 receptor
  action at 5-HT3 receptor: antagonist
5-HT7 receptor
  action at 5-HT7 receptor: antagonist
5-HT1D receptor
  action at 5-HT1D receptor: antagonist
5-HT transporter (SERT)
  action at 5-HT transporter (SERT): inhibitor
[11]
  tolerability regardless of degree of renal or hepatic impairment: well tolerated
[11]; [21]
  tolerability of combination: well tolerated
